Source: ChEMBL document CHEMBL6177951, “Synthesis and anti-MRSA activity of quaternized small molecule antimicrobial peptide mimics based on norharmane” (Eur J Med Chem, 2025)
In brackets after ≈: the same amount, converted by molar mass. Activity calls are given as the source filed them. The rule behind the calls is not given here.

How the values were obtained:
Staphylococcus aureus [1] = test: Antibacterial activity against Staphylococcus aureus ATCC 25923 assessed as inhibition of bacterial growth incubated for 14 hrs by two-fold serial dilution method; assay type: functional
Staphylococcus aureus [2] = test: Antibacterial activity against Staphylococcus aureus ATCC 29213 assessed as inhibition of bacterial growth incubated for 14 hrs by two-fold serial dilution method; assay type: functional
Staphylococcus aureus [3] = test: Antibacterial activity against Staphylococcus aureus CMCC 26003 assessed as inhibition of bacterial growth incubated for 14 hrs by two-fold serial dilution method; assay type: functional
Staphylococcus aureus [4] = test: Antibacterial activity against methicillin-resistant Staphylococcus aureus ATCC 43300 assessed as inhibition of bacterial growth incubated for 14 hrs by two-fold serial dilution method; assay type: functional
Staphylococcus aureus [5] = test: Antibacterial activity against methicillin-resistant Staphylococcus aureus ATCC 33591 assessed as inhibition of bacterial growth incubated for 14 hrs by two-fold serial dilution method; assay type: functional
Staphylococcus aureus [6] = test: Antibacterial activity against Staphylococcus aureus ATCC 33591 assessed as resistance development by measuring fold increase in MIC at 0.5 times MIC incubated for 8 hrs and measured after 15 passages; assay type: functional
Staphylococcus aureus [7] = test: Antibacterial activity against methicillin-resistant Staphylococcus aureus clinical isolate M-13 incubated for 14 hrs by two-fold serial dilution method; assay type: functional
Staphylococcus aureus [8] = test: Antibacterial activity against methicillin-resistant Staphylococcus aureus clinical isolate M-14 incubated for 14 hrs by two-fold serial dilution method; assay type: functional
Staphylococcus aureus [9] = test: Antibacterial activity against methicillin-resistant Staphylococcus aureus clinical isolate M-15 incubated for 14 hrs by two-fold serial dilution method; assay type: functional
Staphylococcus aureus [10] = test: Antibacterial activity against methicillin-resistant Staphylococcus aureus clinical isolate M-16 incubated for 14 hrs by two-fold serial dilution method; assay type: functional
Staphylococcus aureus [11] = test: Antibacterial activity against methicillin-resistant Staphylococcus aureus clinical isolate M-17 incubated for 14 hrs by two-fold serial dilution method; assay type: functional
Staphylococcus aureus [12] = test: Antibacterial activity against methicillin-resistant Staphylococcus aureus clinical isolate M-18 incubated for 14 hrs by two-fold serial dilution method; assay type: functional
Staphylococcus aureus [13] = test: Antibacterial activity against methicillin-resistant Staphylococcus aureus clinical isolate M-19 incubated for 14 hrs by two-fold serial dilution method; assay type: functional
Staphylococcus aureus [14] = test: Antibacterial activity against methicillin-resistant Staphylococcus aureus clinical isolate M-20 incubated for 14 hrs by two-fold serial dilution method; assay type: functional
Staphylococcus aureus [15] = test: Antibacterial activity against methicillin-resistant Staphylococcus aureus clinical isolate M-21 incubated for 14 hrs by two-fold serial dilution method; assay type: functional
Staphylococcus aureus [16] = test: Antibacterial activity against methicillin-resistant Staphylococcus aureus clinical isolate M-22 incubated for 14 hrs by two-fold serial dilution method; assay type: functional
Staphylococcus aureus [17] = test: Antibacterial activity against methicillin-resistant Staphylococcus aureus clinical isolate M-23 incubated for 14 hrs by two-fold serial dilution method; assay type: functional
Staphylococcus aureus [18] = test: Antibacterial activity against Staphylococcus aureus ATCC 33591 assessed as log reduction in bacterial growth at 1 times MIC measured at 6 hrs by time-kill kinetic assay; assay type: functional
Staphylococcus aureus [19] = test: In vivo antibacterial activity against methicillin-resistant Staphylococcus aureus infected in female Kunming mouse skin infection model assessed as log reduction in bacterial load at 5 mg/kg measured after 48 hrs (reference value: 14.34 log10CFU/g); assay type: functional
Staphylococcus aureus [20] = test: In vivo antibacterial activity against methicillin-resistant Staphylococcus aureus infected in female Kunming mouse skin infection model assessed as recovery of dorsal surface at 5 to 20 mg/kg measured after 48 hrs; assay type: functional, organism-based; details: dose 5-20 mg/kg
Staphylococcus aureus [21] = test: In vivo antibacterial activity against methicillin-resistant Staphylococcus aureus infected in female Kunming mouse skin infection model assessed as reduction in inflammatory cells at 5 to 20 mg/kg measured after 48 hrs by H and E staining based analysis; assay type: functional, organism-based; details: dose 5-20 mg/kg

SMILES | MIC (Staphylococcus aureus [1]) | MIC (Staphylococcus aureus [2]) | MIC (Staphylococcus aureus [3]) | MIC (Staphylococcus aureus [4]) | MIC (Staphylococcus aureus [5]) | other results
CC[n+]1ccc2c3ccccc3n(CC[N+](C)(C)CC)c2c1.[Br-].[Br-] | 128 µg/mL | > 128 µg/mL | > 128 µg/mL | > 128 µg/mL | > 128 µg/mL | –
CCn1cc(C(=O)O)c(=O)c2cc(F)c(N3CCNCC3)cc21 [NORFLOXACIN] | – | – | – | – | – | fold change (FC) (Staphylococcus aureus [6]): 16
C[n+]1ccc2c3ccccc3n(CC[N+](C)(C)C)c2c1.[I-].[I-] | 128 µg/mL | > 128 µg/mL | > 128 µg/mL | > 128 µg/mL | > 128 µg/mL | –
CCCCC[n+]1ccc2c3ccccc3n(CCN(CC)CC)c2c1.[Br-] | 8 µg/mL | 128 µg/mL | 16 µg/mL | 32 µg/mL | 32 µg/mL | –
c1ccc2c3c([nH]c2c1)CNCC3 [TRYPTOLINE] | 128 µg/mL (≈ 743 µM) | > 128 µg/mL | 128 µg/mL (≈ 743 µM) | 128 µg/mL (≈ 743 µM) | 128 µg/mL (≈ 743 µM) | –
CC[N+](C)(CC)CCn1c2ccccc2c2cc[n+](C)cc21.[I-].[I-] | 128 µg/mL | > 128 µg/mL | > 128 µg/mL | > 128 µg/mL | > 128 µg/mL | –
CCC[n+]1ccc2c3ccccc3n(CC[N+](C)(C)CCC)c2c1.[Br-].[Br-] | 64 µg/mL | > 128 µg/mL | > 128 µg/mL | > 128 µg/mL | > 128 µg/mL | –
C[n+]1ccc2c3ccccc3n(CCCCCCCCCCCCn3c4ccccc4c4cc[n+](C)cc43)c2c1.[I-].[I-] | 1 µg/mL | 0.5 µg/mL | 0.5 µg/mL | 1 µg/mL | 0.5 µg/mL | MIC (Staphylococcus aureus [7]): 1 µg/mL; MIC (Staphylococcus aureus [8]): 1 µg/mL; MIC (Staphylococcus aureus [9]): 1 µg/mL; MIC (Staphylococcus aureus [10]): 1 µg/mL; MIC (Staphylococcus aureus [11]): 1 µg/mL; MIC (Staphylococcus aureus [12]): 1 µg/mL; MIC (Staphylococcus aureus [13]): 1 µg/mL; MIC (Staphylococcus aureus [14]): 1 µg/mL; MIC (Staphylococcus aureus [15]): 1 µg/mL; MIC (Staphylococcus aureus [16]): 1 µg/mL; MIC (Staphylococcus aureus [17]): 1 µg/mL
CN[C@H](CC(C)C)C(=O)N[C@H]1C(=O)N[C@@H](CC(N)=O)C(=O)N[C@H]2C(=O)N[C@H]3C(=O)N[C@H](C(=O)N[C@H](C(=O)O)c4cc(O)cc(O)c4-c4cc3ccc4O)[C@H](O)c3ccc(c(Cl)c3)Oc3cc2cc(c3O[C@@H]2O[C@H](CO)[C@@H](O)[C@H](O)[C@H]2O[C@H]2C[C@](C)(N)[C@H](O)[C@H](C)O2)Oc2ccc(cc2Cl)[C@H]1O [VANCOMYCIN] | – | – | – | – | – | Activity (Staphylococcus aureus [18]): 2.74 log10CFU/ml; Activity (Staphylococcus aureus [19]): 4.99 log10CFU/g; Activity (Staphylococcus aureus [20]): Active; Activity (Staphylococcus aureus [21]): Active
CCCC[n+]1ccc2c3ccccc3n(CC[N+](C)(C)CCCC)c2c1.[Br-].[Br-] | 128 µg/mL | > 128 µg/mL | > 128 µg/mL | > 128 µg/mL | 128 µg/mL | –
C[n+]1ccc2c3ccccc3n(CCCCCCCCCCn3c4ccccc4c4cc[n+](C)cc43)c2c1.[I-].[I-] | 2 µg/mL | 1 µg/mL | 0.5 µg/mL | 2 µg/mL | 0.5 µg/mL | MIC (Staphylococcus aureus [7]): 1 µg/mL; MIC (Staphylococcus aureus [8]): 1 µg/mL; MIC (Staphylococcus aureus [9]): 2 µg/mL; MIC (Staphylococcus aureus [10]): 1 µg/mL; MIC (Staphylococcus aureus [11]): 2 µg/mL; MIC (Staphylococcus aureus [12]): 2 µg/mL; MIC (Staphylococcus aureus [13]): 2 µg/mL; MIC (Staphylococcus aureus [14]): 1 µg/mL; MIC (Staphylococcus aureus [15]): 2 µg/mL; MIC (Staphylococcus aureus [16]): 1 µg/mL; MIC (Staphylococcus aureus [17]): 2 µg/mL
c1ccc2c(c1)c1ccncc1n2CCCCCCCCCn1c2ccccc2c2ccncc21 | > 128 µg/mL | > 128 µg/mL | > 128 µg/mL | > 128 µg/mL | > 128 µg/mL | –
